Measured values: patent US8536332B2, “Modulating signal transduction pathways with substituted pyridol [2,3-b] pyrazines” (Aeterna Zentaris GmbH, priority 2007, dated 2013)

| melting point [°C] | Compound |
| --- | --- |
| 262 to 264 | COc1ccc(-c2ccc3ncc(NC(=O)NC4CCCCC4)nc3n2)cc1OC [Compound 571, 1-Cyclohexyl-3-[6-(3,4-dimethoxy-phenyl)-pyrido[2,3-b]pyrazin-3-yl]-urea] |
| 168 to 170 | COc1ccc(-c2ccc3ncc(NC(=O)c4ccccc4)nc3n2)cc1OC [Compound 660, N-[6-(3,4-Dimethoxy-phenyl)-pyrido[2,3-b]pyrazin-3-yl]-benzamide] |
| 290 to 293 | COc1cc(-c2ccc3ncc(NC(=O)Nc4ccc(N5C(=O)C=CC5=O)cc4)nc3n2)ccc1O [Compound 622, 1-[4-(2,5-Dioxo-2,5-dihydro-pyrrol-1-yl)-phenyl]-3-[6-(4-hydroxy-3-methoxy-phenyl)-pyrido[2,3-b]pyrazin-3-yl]-urea] |
| 210 to 212 | C=CCNC(=O)Nc1cnc2ccc(-c3cc(C)c(O)c(C)c3)nc2n1 [Compound 587, 1-Allyl-3-[6-(4-hydroxy-3,5-dimethyl-phenyl)-pyrido[2,3-b]pyrazin-3-yl]-urea] |
| 247 to 249 | CNC(=O)Nc1cnc2ccc(-c3cc(Cl)c(O)c(Cl)c3)nc2n1 [Compound 557, 1-[6-(3,5-Dichloro-4-hydroxy-phenyl)-pyrido[2,3-b]pyrazin-3-yl]-3-methyl-urea] |
| 280 to 282 | O=C(NCCc1ccccc1)Nc1cnc2ccc(-c3cc(Cl)c(O)c(Cl)c3)nc2n1 [Compound 564, 1-[6-(3,5-Dichloro-4-hydroxy-phenyl)-pyrido[2,3-b]pyrazin-3-yl]-3-phenethyl-urea] |
| 347 | COc1cc(Nc2cnc3ccc(NC(=S)NCC4CCCCC4)nc3n2)cc(OC)c1OC [Compound 696, 1-Cyclohexylmethyl-3-[3-(3,4,5-trimethoxy-phenylamino)-pyrido[2,3-b]pyrazin-6-yl]-thiourea] |
| 251 to 253 | Cc1cc(-c2ccc3ncc(NC(=O)NC4CCN(C(=O)C(F)(F)F)CC4)nc3n2)cc(C)c1O [Compound 589] |
| 287 to 290 | COc1cc(-c2ccc3ncc(NC(=O)Nc4ccc(N(C)C)cc4)nc3n2)ccc1O [Compound 602, 1-(4-Dimethylamino-phenyl)-3-[6-(4-hydroxy-3-methoxy-phenyl)-pyrido[2,3-b]pyrazin-3-yl]-urea] |
| > 300 | O=C(Nc1cnc2ccc(-c3cc(Cl)c(O)c(Cl)c3)nc2n1)Nc1ccccc1[N+](=O)[O-] [Compound 561, 1-[6-(3,5-Dichloro-4-hydroxy-phenyl)-pyrido[2,3-b]pyrazin-3-yl]-3-(2-nitro-phenyl)-urea] |
| 214 to 216 | CCN(CC)C(=O)Nc1cnc2ccc(-c3ccc(O)c(OC)c3)nc2n1 [Compound 632, 1,1-Diethyl-3-[6-(4-hydroxy-3-methoxy-phenyl)-pyrido[2,3-b]pyrazin-3-yl]-urea] |
| 243 to 245 | COCCNC(=S)Nc1ccc2ncc(Nc3cc(OC)c(OC)c(OC)c3)nc2n1 [Compound 705, 1-(2-Methoxy-ethyl)-3-[3-(3,4,5-trimethoxy-phenylamino)-pyrido[2,3-b]pyrazin-6-yl]-thiourea] |
| 244 to 246 | COc1cc(-c2ccc3ncc(NC(=O)Nc4ccc(F)cc4)nc3n2)ccc1O [Compound 600, 1-(4-Fluoro-phenyl)-3-[6-(4-hydroxy-3-methoxy-phenyl)-pyrido[2,3-b]pyrazin-3-yl]-urea] |
| 218 to 219 | CCNC(=S)Nc1cnc2ccc(-c3cc(OC)c(OC)c(OC)c3)nc2n1 [Compound 650, 1-Ethyl-3-[6-(3,4,5-trimethoxy-phenyl)-pyrido[2,3-b]pyrazin-3-yl]-thiourea] |
| 266 | CCNC(=O)Nc1cnc2ccc(-c3cc(C)c(O)c(Cl)c3)nc2n1 [Compound 642, 1-[6-(3-Chloro-4-hydroxy-5-methyl-phenyl)-pyrido[2,3-b]pyrazin-3-yl]-3-ethyl-urea] |
| 248 to 250 | COc1cc(Nc2cnc3ccc(NC(=S)NCc4ccc(C)cc4)nc3n2)cc(OC)c1OC [Compound 698, 1-(4-Methyl-benzyl)-3-[3-(3,4,5-trimethoxy-phenylamino)-pyrido[2,3-b]pyrazin-6-yl]-thiourea] |
| 213 to 215 | COc1cc(-c2ccc3ncc(NC(=S)NC(C)(C)C)nc3n2)ccc1O [Compound 652, 1-tert-Butyl-3-[6-(4-hydroxy-3-methoxy-phenyl)-pyrido[2,3-b]pyrazin-3-yl]-thiourea] |

Continued, compound first:

| Compound | melting point [°C] |
| --- | --- |
| CCNC(=O)Nc1ccc2ncc(-c3cccc(OC)c3OC)nc2n1 [Compound 68, 1-[3-(2,3-Dimethoxy-phenyl)-pyrido[2,3-b]pyrazin-6-yl]-3-ethyl-urea] | 182 to 185 |
| CCNC(=O)Nc1ccc2ncc(-c3cccc(CO)c3)nc2n1 [Compound 115, 1-Ethyl-3-[3-(3-hydroxymethyl-phenyl)-pyrido[2,3-b]pyrazin-6-yl]-urea] | 200 to 202 |
| COc1cc(-c2ccc3ncc(NC(=S)NC4CCCC4)nc3n2)ccc1O [Compound 519, 1-Cyclopentyl-3-[6-(4-hydroxy-3-methoxy-phenyl)-pyrido[2,3-b]pyrazin-3-yl]-thiourea] | 233 to 235 |
| CCNC(=S)Nc1ccc2ncc(Nc3cc(Cl)cc(Cl)c3)nc2n1 [Compound 443, 1-[3-(3,5-Dichloro-phenylamino)-pyrido[2,3-b]pyrazin-6-yl]-3-ethyl-thiourea] | 270 |
| CCNC(=O)Nc1ccc2ncc(-c3cccc(C#N)c3)nc2n1 [Compound 114, 1-[3-(3-Cyano-phenyl)-pyrido[2,3-b]pyrazin-6-yl]-3-ethyl-urea] | 253 to 257 |
| CCNC(=S)Nc1ccc2ncc(Nc3ccc(C)c(NS(C)(=O)=O)c3)nc2n1 [Compound 165, N-{5-[6-(3-Ethyl-thioureido)-pyrido[2,3-b]pyrazin-3-ylamino]-2-methyl-phenyl}-methanesulfonamide] | 268 |
| CCNC(=O)Nc1ccc2ncc(-c3cnc4[nH]ccc4c3)nc2n1 [Compound 61, 1-Ethyl-3-[3-(1H-pyrrolo[2,3-b]pyridin-5-yl)-pyrido[2,3-b]pyrazin-6-yl]-urea] | 270 to 274 |
| CCNC(=S)Nc1ccc2ncc(Nc3ccc(O)c(C)c3)nc2n1 [Compound 331, 1-Ethyl-3-[3-(4-hydroxy-3-methyl-phenylamino)-pyrido[2,3-b]pyrazin-6-yl]-thiourea] | 258 |
| CCNC(=O)Nc1cnc2ccc(Nc3cccc(CC(=O)O)c3)nc2n1 [Compound 194, {3-[3-(3-Ethyl-ureido)-pyrido[2,3-b]pyrazin-6-ylamino]-phenyl}-acetic acid] | 305 to 308 |
| CCNC(=O)Nc1ccc2ncc(-c3ccccc3F)nc2n1 [Compound 103, 1-Ethyl-3-[3-(2-fluoro-phenyl)-pyrido[2,3-b]pyrazin-6-yl]-urea] | 226 to 228 |
| CCNC(=O)Nc1ccc2ncc(-c3cnn(Cc4ccccc4)c3)nc2n1 [Compound 58, 1-[3-(1-Benzyl-1H-pyrazol-4-yl)-pyrido[2,3-b]pyrazin-6-yl]-3-ethyl-urea] | 258 to 261 |
| CCNC(=O)Nc1ccc2ncc(-c3cccc(Cl)c3)nc2n1 [Compound 111, 1-[3-(3-Chloro-phenyl)-pyrido[2,3-b]pyrazin-6-yl]-3-ethyl-urea] | 262 to 264 |
| CN(C)c1ccc(NC(=O)Nc2cnc3ccc(-c4cc(Cl)c(O)c(Cl)c4)nc3n2)cc1 [Compound 555, 1-[6-(3,5-Dichloro-4-hydroxy-phenyl)-pyrido[2,3-b]pyrazin-3-yl]-3-(4-dimethylamino-phenyl)-urea] | 259 to 262 |
| CCNC(=O)Nc1cnc2ccc(-c3ccc(C)cc3)nc2n1 [Compound 178, 1-Ethyl-3-(6-p-tolyl-pyrido[2,3-b]pyrazin-3-yl)-urea] | 227 to 228 |
| CCNC(=S)Nc1cnc2ccc(Nc3cccc(CC(=O)O)c3)nc2n1 [Compound 195, {3-[3-(3-Ethyl-thioureido)-pyrido[2,3-b]pyrazin-6-ylamino]-phenyl}-acetic acid] | 248 |
| CCNC(=O)Nc1cnc2ccc(-c3ccc(OC)c(OC)c3)nc2n1 [Compound 22, 1-[6-(3,4-Dimethoxy-phenyl)-pyrido[2,3-b]pyrazin-3-yl]-3-ethyl-urea] | > 235 |
| CCNC(=O)Nc1ccc2ncc(-c3cc(Cl)cc(Cl)c3)nc2n1 [Compound 90, 1-[3-(3,5-Dichloro-phenyl)-pyrido[2,3-b]pyrazin-6-yl]-3-ethyl-urea] | 298 to 305 |
| CCNC(=O)Nc1ccc2ncc(-c3cccc(OCc4cc(OC)cc(OC)c4)c3)nc2n1 [Compound 121, 1-{3-[3-(3,5-Dimethoxy-benzyloxy)-phenyl]-pyrido[2,3-b]pyrazin-6-yl}-3-ethyl-urea] | 212 to 217 |
| O=C(Nc1cnc2ccc(-c3cc(Cl)c(O)c(Cl)c3)nc2n1)NC1CCCCCCC1 [Compound 556, 1-Cyclooctyl-3-[6-(3,5-dichloro-4-hydroxy-phenyl)-pyrido[2,3-b]pyrazin-3-yl]-urea] | 261 to 263 |
| CCNC(=S)Nc1ccc2ncc(Nc3ccccc3OC)nc2n1 [Compound 332, 1-Ethyl-3-[3-(2-methoxy-phenylamino)-pyrido[2,3-b]pyrazin-6-yl]-thiourea] | 232 |
| CCNC(=S)Nc1cnc2ccc(Nc3ccc(O)cc3)nc2n1 [Compound 198, 1-Ethyl-3-[6-(4-hydroxy-phenylamino)-pyrido[2,3-b]pyrazin-3-yl]-thiourea] | 258 |
| CCNC(=O)Nc1ccc2ncc(-c3cc(C)cc(Br)c3)nc2n1 [Compound 94, 1-[3-(3-Bromo-5-methyl-phenyl)-pyrido[2,3-b]pyrazin-6-yl]-3-ethyl-urea] | 270 to 274 |
| COc1cc(-c2ccc3ncc(NC(=O)Nc4ccccc4)nc3n2)ccc1O [Compound 3, 1-[6-(4-Hydroxy-3-methoxy-phenyl)-pyrido[2,3-b]pyrazin-3-yl]-3-phenyl-urea] | 240 |
| CCNC(=O)Nc1ccc2ncc(-c3cc(F)c(F)c(F)c3)nc2n1 [Compound 81, 1-Ethyl-3-[3-(3,4,5-trifluoro-phenyl)-pyrido[2,3-b]pyrazin-6-yl]-urea] | 305.4 to 307.2 |
